# “And” between values parts separate entries of the source, which are not always exact repeats. Equal entries are not always repeated. Where two headings read alike, the source gives them in different places.
# Key:
# [1] = system: Human Platelet Aggregation (collagen-induced); assay: Anti-aggregatory response after incubation with PPP (Example 8); format: cell-based; conditions: up to 4 hours at 37° C
# Procedure: (§1) Blood from healthy human volunteers who had not taken any medicine for at least 14 days was collected by venopuncture into 3.15% (w/v) tri-sodium citrate (9:1 v/v). The blood was centrifuged at 800 g for 15 minutes to produce PRP. The PRP was further centrifuged at 12,000 g for 1 minute to produce PPP. A total of 12 volunteers donated blood for the study.
# (§2) Platelet aggregation was studied using a dual channel Payton aggregometer calibrated with PRP (0%) and PPP (100%) with respect to the degree of light transmission. Aliquots of PRP (500 μl) were added to siliconized cuvettes, stirred (1000 revs/min) and warmed to 37° C. The platelets were incubated for 1 minute to establish a stable baseline prior to investigation. A submaximal concentration of the aggregating agent collagen (1 μg/ml) was added to the PRP and the platelet aggregation was monitored as the increase in light transmission observed over a 4 minute period.
# After the incubation period, an aliquot of the PPP or aqueous vehicle (50 μl) was added to fresh PRP (450 μl) for determination of anti-platelet activity. This experiment was repeated using PPP from at least three human volunteers for each compound.
# [2] = system: Human Platelet Aggregation (collagen-induced); assay: Anti-aggregatory response, 1 min incubation with PRP, collagen-induced (Example 4); format: cell-based; conditions: 1 min with PRP; for Platelet Aggregation (mean): collagen 1 μg/ml
# Procedure: as §1, with “PPP.” for “PPP. A total of 12 volunteers donated blood for the study.”
# as §2, with “measured” for “studied”, “testing.” for “investigation.”
# The percent inhibition of the platelet aggregation was calculated using the peak increase in light transmission observed over the 4 minute period following the addition of collagen, as compared to that of the control. This experiment was repeated using PRP from at least three human volunteers.
# [3] = system: mean arterial pressure and heart rate of anesthetized rats; conditions: for Time of Δmax (superscript) / t1/2 / Δmax (Mean Arterial Pressure): Table 4; for Mean Arterial Pressure: 0,1,5,10,15,30,60,120,180,240,360 min
# Procedure: Male Wistar rats (250-330 g) were anesthetized with thiopentone sodium (INTRAVAL®, 120 mg/kg i.p.). The trachea was cannulated to facilitate respiration. The right carotid artery was cannulated and connected to a pressure transducer (Spectramed P23XL), for the measurement of mean arterial pressure (MAP) and heart rate (HR) which were continuously recorded on a 4-channel Grass 7D polygraph recorder (Grass, Mass., U.S.A.). Body temperature was maintained at 37±1°C. by means of a rectal probe thermometer attached to a homeothermic blanket control unit (Harvard Apparatus Ltd.).
compound,measurement,setting,value
CCCCC[C@H](O)CC[C@@H]1[C@H]2Cc3cccc(OCC(=O)O)c3C[C@H]2C[C@H]1O [Compound X],effect of incubation with PPP on anti-platelet activity,[1],not affected by incubation
same,Platelet Aggregation (mean),[2]; 1 ng/ml final,101 % of Control
same,Platelet Aggregation (mean),[2]; 3 ng/ml final,98 % of Control
same,Platelet Aggregation (mean),[2]; 10 ng/ml final,60 % of Control
same,Platelet Aggregation (mean),[2]; 30 ng/ml final,1 % of Control
same,Platelet Aggregation (mean),[2]; 100 ng/ml final,1 % of Control
same,inhibition of aggregation response at highest concentrations,"[2]; Compound X 30 and 100 ng/ml, Compound 1 3 mg/ml, Compound 3 10 mg/ml",completely inhibited the aggregation response
same,concentration inhibiting aggregation by 50% (ID50),[2]; collagen,0.02 µg/mL
same,"inhibition of platelet aggregation, concentration dependence",[2]; collagen,concentration-dependentinhibition of collagen-induced platelet aggregation
same,Time of Δmax (superscript),[3]; 0.1 mg/kg s.c.,15 min
same,t1/2,[3]; 0.1 mg/kg s.c.,2.75 h
same,Δmax (Mean Arterial Pressure),[3]; 0.1 mg/kg s.c.,46 ± 5 mm Hg
same,Mean Arterial Pressure,[3]; 0.3 mg/kg s.c.,101 ± 12 mm Hg
same,Time of Δmax (superscript),[3]; 0.3 mg/kg s.c.,10 min
same,t1/2,[3]; 0.3 mg/kg s.c.,1.33 to 1.83 h
same,Δmax (Mean Arterial Pressure),[3]; 0.3 mg/kg s.c.,52 mm Hg
same,maximum fall in MAP,[3]; 1 mg/kg s.c.,about 70 mm Hg
same,time of maximum fall in MAP,[3]; 1 mg/kg s.c.,15 min
same,Mean Arterial Pressure,[3]; 1 mg/kg s.c.,88 ± 5 mm Hg and 98 ± 6 mm Hg
same,Time of Δmax (superscript),[3]; 1 mg/kg s.c.,15 min
same,t1/2,[3]; 1 mg/kg s.c.,2.25 to 4.83 h
same,Δmax (Mean Arterial Pressure),[3]; 1 mg/kg s.c.,71 ± 8 mm Hg
same,heart rate / tachycardia,"[3]; rat, in vivo, sc",dose-dependent increase in heart rate
same,fall in MAP,"[3]; s.c., Compound 4 1-10 mg/kg, Compound X 0.1-1 mg/kg, Compounds 7 and 8 3-30 mg/kg",rapid dose-related fall in MAP

# Reference: patent US6242482A, “Prostaglandin compounds and derivatives thereof, compositions containing the same and method of using the same for the treatment of congestive heart failure” (priority 2000, dated 2001)
